Data published in patent US20240191217A1, “CAS10-BASED ASSAY FOR NUCLEIC ACID DETECTION” (priority 2021, published 2024).

Experiments:
Assay type in all cases: biochemical
NucC = target: T1, NucC (Vibrio metoecus, UniProt P0DUD6); test: Degradation of cA3 by NucC, liquid chromatography with UV detection; conditions: 100 μM cA3 with 0.5 μM NucC in reaction buffer for 60 min
T1 construct: His8 (TEV-cleavable, vector pEV5HisTEV) (N, cleaved yes); made in house; host or cells: E. coli C43(DE3)
Protocol: LC chromatograms with UV monitoring at 254 nm showing the reaction of 100 μM cA3 with 0.5 μM NucC under assay conditions after 15 and 60 min. A reaction in which NucC had been omitted was allowed to proceed for 60 min.
Some Csx1/Csm6 family proteins have an intrinsic “ring nuclease” activity for the degradation of their cOA activator—an activity that is probably important in vivo for the control of the CRISPR mediated immune response (9). In the context of assay development however, this is an undesirable characteristic. Furthermore, it is difficult to remove this activity from Csx1/Csm6 family proteins as the activity is closely linked with cOA binding and/or with the HEPN ribonuclease activity (18, 19). To determine whether NucC degrades its cA3 activator, we incubated 100 μM cA3 with […] NucC in reaction buffer for 60 min and monitored the products by liquid chromatography and UV detection (FIG. 5) after removal of the enzyme by ultracentrifugation (MWCO 3 kDa). […] This is perhaps not surprising given that NucC is a double stranded DNase and the activator is a cyclic ribonucleotide.

VmeNucC [1] = target: T2, VmeNucC (Vibrio metoecus, UniProt P0DUD6); test: NucC assay using synthetic cA3 as activator; conditions: FIG. 6
T2 construct: His8 (TEV-cleavable, vector pEV5HisTEV) (N, cleaved yes); made in house; host or cells: E. coli C43(DE3)
T2 sequence (P0DUD6 whole entry): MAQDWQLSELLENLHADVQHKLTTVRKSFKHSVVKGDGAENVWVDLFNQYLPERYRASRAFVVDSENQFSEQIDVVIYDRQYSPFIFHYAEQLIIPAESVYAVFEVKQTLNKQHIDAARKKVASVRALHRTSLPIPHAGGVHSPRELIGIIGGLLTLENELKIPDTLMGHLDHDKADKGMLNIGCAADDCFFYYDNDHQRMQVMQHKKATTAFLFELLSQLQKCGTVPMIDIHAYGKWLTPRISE
Protocol: FIG. 6: NucC assay using synthetic cA3 as activator. A: Selected fluorescence signal curves. B: The fluorescence intensities of measurements from 28-30 min reaction time were used for one-way ANOVA analysis. Multiplicity adjusted P values were calculated by Dunnett's multiple comparisons test (N=7). The assay was performed in duplicate. C: selected data from B with expanded y scale. ns: not significant, P value>0.05; ***: P value<0.001; ****: P value<0.0001.
(§1) All assays were performed on a FluoStar Omega plate reader (BMG Labtech) using fluorescence detection (λex/em 544/590 nm) and Corning black, non-binding half-area 96-well plates. […] Fluorescence was measured in 30 s intervals at 37° C. for up to 60 min. […] To determine limit of detection, the means of fluorescence intensities ranging between 28 and 32 min was analysed by one-way ANOVA and for multiple comparisons the Brown-Forsythe and Welch ANOVA test was applied. […] Relative activities between reaction conditions was determined by comparing the relative rates of the reactions. Rates were assumed to be proportional to the change in fluorescence signal over time and calculated from the slopes of linear regression analysis. Target specificity was analysed by extracting the time point (Tt) when the fluorescence intensity crossed a threshold value. […]

VmeNucC [2] = target: T2, VmeNucC; test: Effect of ATP on NucC nuclease activity (fluorescent DNA duplex reporter)
Protocol: FIG. 4: Factors influencing NucC activity. Relative activities were determined by comparing the relative increase in fluorescence signal over time. A: Effect of NaCl concentration. B: NucC activity in different buffers. C: Effect of ATP on NucC nuclease activity.
as §1, with “value. The threshold value was set to ⅛^th of the maximal measured fluorescence signal of the reference target.” for “value.”

T1 sequence (P0DUD6 whole entry): as above

Structure (SMILES)	depletion of cA3 by NucC (NucC)	amount of synthetic cyclic nucleotide giving a clear signal (VmeNucC [1]) [pM]	NucC activity retained (VmeNucC [2]; ATP concentration of 2 mM) [%]	effect of ATP on NucC (VmeNucC [2]; ATP concentrations above 500 μM)
Nc1ncnc2c1ncn2[C@@H]1O[C@@H]2COP(=O)(O)O[C@H]3[C@@H](O)[C@H](n4cnc5c(N)ncnc54)O[C@@H]3COP(=O)(O)O[C@H]3[C@@H](O)[C@H](n4cnc5c(N)ncnc54)O[C@@H]3COP(=O)(O)O[C@H]2[C@H]1O [cA3, cyclic tri-adenylate]	no significant depletion	≤ 10	–	–
Nc1ncnc2c1ncn2[C@@H]1O[C@H](COP(=O)(O)OP(=O)(O)OP(=O)(O)O)[C@@H](O)[C@H]1O [ATP]	–	–	50	minor adverse effect
